Measured values taken from patent US12269800B2, “Delivery of therapeutic alkaloid compounds” (priority 2021, dated 2025).
Where two headings read alike, the source gives them in different places.

Experiments:
[1] = in vivo; cited from earlier work
[2] = Hydrolysis Assay of Example A2, Condition 1 (SGF with pepsin, pH 1.5, 37° C.); format: physicochemical; settings: SGF with pepsin pH 1.5, 37° C., 0.5 mM
[3] = 2 mg/kg iv in rat
Experimental: Brain samples were homogenized with PBS (W/V, 1:3). Plasma/brain samples were mixed with acetonitrile containing internal standard. The samples were vortexed then centrifuged at 4 degrees Celsius for 15 minutes. The supernatant was diluted with water (1:2 V/V) and analyzed by LC/MS/MS for quantitative analysis. […] Area under the curve (AUC) was calculated and divided by dose to account for molecular weight difference of prodrug and metabolite (AUC/D).

[4] = format: physicochemical; settings: DI water, 25° C., 0.5 mM
[5] = molecular target: T1, SERT (Homo sapiens, UniProt P31645); test: cell-based; settings: stable 5HTT cells, 30 minutes at 37° C.
T1 construct: expressed in transfected cells
T1 sequence (P31645 whole entry, species assumed): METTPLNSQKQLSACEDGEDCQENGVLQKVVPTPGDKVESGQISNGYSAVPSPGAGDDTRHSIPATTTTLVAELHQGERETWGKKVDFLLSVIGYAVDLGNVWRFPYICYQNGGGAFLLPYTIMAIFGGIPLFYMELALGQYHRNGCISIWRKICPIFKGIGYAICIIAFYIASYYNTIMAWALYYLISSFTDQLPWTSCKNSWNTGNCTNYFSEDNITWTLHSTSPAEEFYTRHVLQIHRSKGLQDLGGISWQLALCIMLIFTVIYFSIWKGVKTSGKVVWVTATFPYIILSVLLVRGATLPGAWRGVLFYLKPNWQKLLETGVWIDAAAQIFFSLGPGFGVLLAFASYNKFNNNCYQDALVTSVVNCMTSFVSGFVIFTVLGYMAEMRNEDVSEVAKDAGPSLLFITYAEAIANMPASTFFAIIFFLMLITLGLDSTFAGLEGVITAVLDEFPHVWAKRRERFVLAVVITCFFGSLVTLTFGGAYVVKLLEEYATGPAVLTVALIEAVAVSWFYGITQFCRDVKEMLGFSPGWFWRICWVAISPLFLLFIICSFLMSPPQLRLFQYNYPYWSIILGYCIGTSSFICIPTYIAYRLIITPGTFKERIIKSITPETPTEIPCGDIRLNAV

[6] = format: physicochemical; settings: acidic pH 2.0, 25 or 37° C.
Experimental: The hydrolysis kinetics was under a certain temperature and measured by LCMS at a certain time interval. The corresponding LCMS chromatograms were recorded and the conversions were calculated. The hydrolysis conditions and the data were summarized in below table. LCMS spectra were obtained using Agilent 1200G1956A or SHIMADZU LCMS-2020. Standard LCMS conditions were as follows (running time 1.55 minutes):
Acidic condition: Mobile Phase A: 0.0375% TFA in water (v/v). Mobile Phase B: 0.01875% TFA in acetonitrile (v/v); Column: Kinetex EVO C18 30*2.1 mm, 5 μm.
Basic condition: Mobile Phase A: 0.025% NH3—H2O in water (v/v). Mobile Phase B: Acetonitrile; Column: Kinetex EVO C18 2.1×30 mm, 5 μm.
Conversion (%)=peak area 1/(peak area 1+peak area 2)*100%, peak area 1 is the integration of hydrolyzed product, peak area 2 is the integration of starting material.

COc1ccc([C@@]23CCC(=O)C[C@@H]2N(C)CC3)cc1OC [(−) mesembrine]
less than 2 hours: half-life in plasma [1]

CCC(C)CC(=O)OC1=C[C@@H]2N(C)CC[C@]2(c2ccc(OC)c(OC)c2)CC1 (stereo partly drawn) [Compound 316, [(3aS,7aS)-3a-(3,4-dimethoxyphenyl)-1-methyl-3,4,5,7a-tetrahydro-2H-indol-6-yl]3-methyl pentanoate]
0%: Condition 1 Conversion (%) ([2]; time 1 min) | Condition 1 Conversion (%) ([2]; time 5 min) | Condition 1 Conversion (%) ([2]; time 30 min) | Condition 1 Conversion (%) ([2]; time 1 h) | Condition 1 Conversion (%) ([2]; time 4 h) | Condition 1 Conversion (%) ([2]; time 24 h) | Condition 2 Conversion (%) ([4]; time 1 min) | Condition 2 Conversion (%) ([4]; time 5 min) | Condition 2 Conversion (%) ([4]; time 30 min) | Condition 2 Conversion (%) ([4]; time 1 h) | Condition 2 Conversion (%) ([4]; time 4 h) | Condition 2 Conversion (%) ([4]; time 24 h)
converts to 001 in vivo: conversion to 001 in vivo [3]

COc1ccc([C@@]23CCC(=NO)C[C@@H]2N(C)CC3)cc1OC (mixture of isomers) [Compound 037]
converted to mesembrine: conversion to mesembrine [6]
< 50 nM: IC50 [5]
